Read-outs that look alike come from different tables or passages of the source. Values belong to the molecule of their own block, whether it stands above or below them.
Legend:
σ1R [1] = conditions: cited from earlier work
GluN1/2B [2] = conditions: cited from earlier work
σ2R = target: σ2R; set-up: method as in earlier work; conditions: ref 18 (Hashimoto 2015); cited from earlier work
[3] = set-up: method as in PMID 35710735; conditions: n = 4; cited from earlier work
σ1R [4] = target: T1, σ1R (Rattus norvegicus, UniProt Q9R0C9); experiment: In vitro σ1R competitive binding assay with (+)-[3H]pentazocine; set-up: from tissue; host or cells: brain of living Wistar rats (in vivo PET); conditions: radioligand (+)-[3H]pentazocine; Wistar rat brain homogenates; 37 °C
Source text: The mixtures were quenched with buffer and filtered through Whatman® GF/C 25 mm filters soaked with 0.05% PEI solution.

GluN1/2B [5] = conditions: cited from earlier work; remark: listed apart in the source
σ1R [6] = target: T1, σ1R; conditions: Wistar rats; for %RO calculated / %RO predicted: σ1R occupancy, [18F]fluspidine
Description: A series of doses were investigated, ranging from 0.05–15 mg/kg. […] There have been efforts to develop ligands with dual GluN1/2B and σ1R activity. Nonetheless, for the purpose of developing selective GluN1/2B ligands, one has to consider fundamentally reformulating the development strategy.
All non-aqueous reactions were performed under N2 atmosphere using flame-dried glassware and standard syringe/septa methods unless stated otherwise. Reactions were magnetically stirred and further monitored by thin layer chromatography (TLC) performed on Merck TLC aluminum sheets (silica gel 60 F254). TLC spots were visualized using UV light (λ = 254 nm) or through staining with KMnO4 solution. Chromatographic purification of products was performed using SiliaFlash P60 silica gel (Silicycle) for preparative column chromatography with a particle size of 40–63 μm (230–400 mesh). Reactions at −78 °C were cooled in a dry ice/acetone bath and reactions at 0 °C were cooled in an ice/water bath. Chemicals were purchased from ABCR, Acros Organics, Amatek Chemical, Fluorochem, Merck, Perkin Elmer and Sigma Aldrich and used without further purification. Solvents for TLC, extraction and flash column chromatography were of technical grade. Extra dry solvents for all non-aqueous reactions were supplied by Acros Organics (puriss., dried over molecular sieves, water content <0.005%). Deuterated solvents (D, 99.9%) were purchased from Cambridge Isotope Laboratories, Inc. NMR spectra of compounds 3, 7 and 8 are presented in the Supplementary Material (Section S1). Tritium labeling was performed by RC Tritec AG (Teufen, Switzerland). […] Positron emission tomography (PET) imaging was performed in Wistar rats according to a previously published procedure.
Standard uptake values (SUVs) are averaged from 0–90 min.

σR = conditions: read-out: Ki (σ1R); published value using the σR ligand [3H]3-PPP; cited from earlier work
GluN1/2B [7] = target: T2, GluN1/2B (Rattus norvegicus, UniProt P35439+Q00960); experiment: In vitro GluN1/2B competitive binding assay with [3H]OF-NB1; conditions: radioligand [3H]OF-NB1; Wistar rat brain homogenates; 25 °C
T2 construct: from tissue; host or cells: Wistar rat whole brain homogenate
Description: (§1) Competitive binding assays were performed as previously reported. […] A dilution series of the test ligands was prepared ranging from 30 µM to 300 pM. […] Each measurement vial contained 0.5 mg/mL of brain homogenate proteins, 20 µL of cold ligand, 10 µL of radioligand and was diluted to 200 µL with HEPES buffer. The vials were incubated at 25 °C and 110 rpm for 1 h. The mixtures were quenched with buffer and filtered through Whatman® GF/C 25 mm filters soaked with 0.05% PEI solution. Filters were washed twice with cold buffer and placed in scintillation vials. Scintillation vials were filled with 2 mL Ultima Gold^TM LSC cocktail and measured in a Beckmann LS6500 liquid scintillator counter.

GluN1/2B [8] = target: T2, GluN1/2B; experiment: In vitro GluN1/2B competitive binding assay with [3H]ifenprodil; conditions: radioligand [3H]ifenprodil; Wistar rat brain homogenates; 25 °C
Description: as §1

T1 sequence (Q9R0C9 whole entry): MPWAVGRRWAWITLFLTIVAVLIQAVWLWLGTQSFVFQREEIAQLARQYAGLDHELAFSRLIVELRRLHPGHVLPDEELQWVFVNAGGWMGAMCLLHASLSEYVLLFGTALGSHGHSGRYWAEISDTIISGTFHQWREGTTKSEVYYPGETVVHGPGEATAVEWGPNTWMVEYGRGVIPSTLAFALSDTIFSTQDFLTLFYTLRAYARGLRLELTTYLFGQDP
T2 sequence (Q00960 27-1482, other chains not shown): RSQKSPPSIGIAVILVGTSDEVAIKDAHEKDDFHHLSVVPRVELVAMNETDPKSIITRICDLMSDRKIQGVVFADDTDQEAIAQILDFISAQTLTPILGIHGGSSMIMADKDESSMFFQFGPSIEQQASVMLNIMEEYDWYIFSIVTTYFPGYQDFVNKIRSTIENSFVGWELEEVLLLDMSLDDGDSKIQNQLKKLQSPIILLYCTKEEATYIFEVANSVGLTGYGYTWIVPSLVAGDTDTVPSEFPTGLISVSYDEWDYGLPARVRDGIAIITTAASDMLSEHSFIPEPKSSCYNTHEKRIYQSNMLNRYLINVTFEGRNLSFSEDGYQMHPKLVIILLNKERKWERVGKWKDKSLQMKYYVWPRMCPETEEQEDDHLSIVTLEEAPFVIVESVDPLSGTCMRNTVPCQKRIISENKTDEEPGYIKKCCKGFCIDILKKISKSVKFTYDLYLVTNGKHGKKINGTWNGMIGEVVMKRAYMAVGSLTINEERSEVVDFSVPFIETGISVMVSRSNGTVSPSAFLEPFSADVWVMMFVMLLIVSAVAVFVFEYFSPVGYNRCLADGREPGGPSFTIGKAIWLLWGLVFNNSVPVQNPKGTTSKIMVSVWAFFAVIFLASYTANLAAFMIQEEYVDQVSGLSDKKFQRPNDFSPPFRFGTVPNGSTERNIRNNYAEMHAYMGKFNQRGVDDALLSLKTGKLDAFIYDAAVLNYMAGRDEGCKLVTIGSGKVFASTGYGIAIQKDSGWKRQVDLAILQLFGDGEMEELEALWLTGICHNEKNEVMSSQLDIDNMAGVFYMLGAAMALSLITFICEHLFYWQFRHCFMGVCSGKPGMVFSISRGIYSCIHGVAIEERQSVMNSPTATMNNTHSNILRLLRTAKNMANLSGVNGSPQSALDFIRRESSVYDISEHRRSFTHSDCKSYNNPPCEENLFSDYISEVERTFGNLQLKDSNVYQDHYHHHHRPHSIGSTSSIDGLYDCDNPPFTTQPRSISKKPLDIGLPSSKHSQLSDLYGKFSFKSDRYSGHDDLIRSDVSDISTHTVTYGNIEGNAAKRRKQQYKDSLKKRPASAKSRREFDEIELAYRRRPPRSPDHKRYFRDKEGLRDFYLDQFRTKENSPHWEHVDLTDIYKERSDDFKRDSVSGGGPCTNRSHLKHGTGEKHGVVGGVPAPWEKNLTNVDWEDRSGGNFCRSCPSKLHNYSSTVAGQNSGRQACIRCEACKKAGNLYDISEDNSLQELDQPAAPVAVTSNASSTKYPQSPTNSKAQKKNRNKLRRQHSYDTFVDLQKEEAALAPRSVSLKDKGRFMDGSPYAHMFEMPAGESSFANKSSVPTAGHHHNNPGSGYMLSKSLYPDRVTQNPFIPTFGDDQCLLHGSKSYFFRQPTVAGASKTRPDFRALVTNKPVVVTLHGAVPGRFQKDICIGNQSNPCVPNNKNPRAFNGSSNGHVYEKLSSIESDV

SMILES: CC(C(O)c1ccc(O)cc1)N1CCC(Cc2ccccc2)CC1 (stereo not shown) [[^3H]Ifenprodil]
- Ki (σ1R [1]; ref 18 (Hashimoto 2015)): 13 nM
- Ki (GluN1/2B [2]; ref 17 (Alarcon et al. 2008)): 11 nM
- Ki (σ2R): 1.89 nM

SMILES: Oc1ccc2c(c1)CCN(CCCCc1ccccc1F)CC2O (stereo not shown) [OF-NB1]
- Ki (σ1R [1]; ref 22 (Ahmed et al. 2021)): 410 nM
- Ki (GluN1/2B [2]; ref 22 (Ahmed et al. 2021)): 10.4 ± 4.7 nM
- log D7.4 [3]: 2.05 ± 0.08

SMILES: C[C@@H]([C@@H](O)c1ccc(O)cc1)N1CCC(O)(c2ccccc2)CC1 [CP-101,606]
- Ki (σ1R [4]): 94 ± 6 nM
- D50 (GluN1/2B) (GluN1/2B [5]): 8.1 µmol/kg
- Ki (GluN1/2B [2]; reported literature value): 16 nM
- D50 (σ1R) (σ1R [6]; administered dose occupying 50% of σ1Rs, [18F]fluspidine PET): 4.9 µmol/kg
- blockade of [18F]fluspidine brain uptake (σ1R [6]; doses 0.05–15 mg/kg): dose-dependent blockade
- %RO calculated (σ1R [6]; dose 0.05 mg/kg): 3.72%
- %RO predicted (σ1R [6]; dose 0.05 mg/kg): 2.43%
- %RO calculated (σ1R [6]; dose 3 mg/kg): 61.9%
- %RO predicted (σ1R [6]; dose 3 mg/kg): 59.2%
- %RO calculated (σ1R [6]; dose 7 mg/kg): 71.2%
- %RO predicted (σ1R [6]; dose 7 mg/kg): 77.1%
- %RO calculated (σ1R [6]; dose 15 mg/kg): 91.2%
- %RO predicted (σ1R [6]; dose 15 mg/kg): 87.8%
- Ki (σR): 60 nM

- Ki (GluN1/2B [7]): > 100000 nM
- Ki (GluN1/2B [8]): 51 ± 13 nM
SMILES: COc1ccc(CCN2CCN(CCCc3ccccc3)CC2)cc1OC [SA-4503]

— publication PMC9416150, “Development and Validation of [^3H]OF-NB1 for Preclinical Assessment of GluN1/2B Candidate Drugs” (Pharmaceuticals, 2022)
